Results from patent publication US20040029167A1, “Inducible COMT_II promoter, chimeric gene containing same and plants transformed therewith” (priority 1999, published 2004).

Tested on: COMT II (−1215 to +24)/GUS
Assay: Induction of GUS activity in COMT II (−1215 to +24)/GUS transgenic plants by elicitors and chemical products
Assay type: in vivo, Nicotiana tabacum cv. Samsun NN
Settings: for GUS Activity: leaves 16 h after infiltration, SA 1 mM, INA 1 mM, chitins 100 μg/ml, glucans 200 μg/ml, pectins 200 μg/ml; for Induction %: nontreated control C = 100, 16 h after infiltration, concentrations as for GUS Activity column
Method: The transgenic plants containing the construct COMT II (−1215 to +24)/GUS were treated with various chemical products, regulators of defense reactions, with methyl-2,6-dichloroisonicotinic (INA) and salicylic acid (SA), with fungal elicitors such as glucans or fragments of chitin and an elicitor of plant origin, such as pectin. The GUS activity is expressed in pmol MU/min.mg. The control (C) corresponds to the basal GUS activity in the nontreated transformed plants.
The induction of the 1239 bp promoter was studied during injury or after treatment with methyl jasmonate (molecule which plays a role in defense response signaling during injury) or with benzothiadiazole (BTH) (chemical SAR-inducer). The GUS activity is measured 16 h after treatment.
The COMT II and GUS activities were assayed on 100 mg of tissues. The tissue is homogenized in a 100 mM sodium phosphate buffer at pH 7.5 containing 10 mM of DTT, after addition of polyclar AT (Serva) and of quartz. The crude extracts are clarified by centrifugation and by filtration on glass wool. The GUS and COMT II activities are measured on the same crude extracts. For measuring the COMT II activity, an aliquot of the protein extract is added to 1 ml of phosphate buffer comprising 100 μM of catechol and 50 μM of tritiated S-adenosyl-L-methionine (1.5×10^5 cpm/ml) and incubated for 3 hours at 37° C. The reaction is stopped by adding 100 μl of 9M sulfuric acid. The radioactive reaction product, […], is extracted with 5 ml of an NA scintillation solution (Beckman) and the radioactivity is counted on a Beckman LS 9000 machine. The fluorimetric measurement of the GUS activity is performed on the same samples, according to the procedure of Jefferson et al. (1987). The protein content is determined by the Bradford method (1976) using Biorad reagents.
Treatment with an elicitor: Solutions are infiltrated, using a syringe equipped with a fine needle, in the mesophyl of the leaves. The infiltrated regions are delimited with a felt-tip marker. The infiltrated regions are harvested 16 hours after treatment. The leaves are treated with a solution of β-megaspermine, a protein elicitor purified from a Phytophthora megasperma culture medium (Kauffmann et al., 1993), or of oligosaccharides such as chitin oligomers (100 μg/ml), glucan fragments (200 μg/ml) and pectin fragments (200 μg/ml). The control plants are infiltrated with water.
Chemical treatments: (1) Solutions of SA (1 mM) or of INA (50 mM) are infiltrated into tobacco leaves using.the protocol described for the treatment with elicitors. (2) Under identical culture conditions, solutions of SA (10 mM), INA (1 mM) or BTH (50 mM) are sprayed onto the transgenic plants. The tissues are recovered 16 hours after treatment. Plants treated with water are used as a control. (3) Seven-week-old plants or leaves of vitroplants kept alive on water are transferred into transparent, hermetically sealed dishes and subjected to an atmosphere of 3.5 mM of MeJa (Serva). The tissues are removed at various times after treatment. The control plants are placed in the same dishes without MeJa.

[1] = 1239 bp promoter, 16 h after treatment

Row | SMILES | induction factors [1] | Induction of the GUS activity % (1239 bp promoter, 16 h after treatment, nontreated plants C = 100) [%] | GUS Activity | Induction % [%]
1 | c1ccc2snnc2c1 [BTH, benzothiadiazole] | 2.5 | 250 | – | –
2 | COC(=O)c1cc(Cl)nc(Cl)c1 [INA, methyl-2,6-dichloroisonicotinic] | – | – | 1,700 pmol MU/min.mg | 200
3 | CC/C=C\CC1C(=O)CCC1CC(=O)OC (stereo not shown) [Methyl jasmonate, methyl jasmonate] | 14.5 | – | – | –
4 | O=C(O)c1ccccc1O [SA, salicylic acid] | – | – | 1,200 pmol MU/min.mg | 200
